Key:
[1] = molecular target: Tyrosine-protein kinase JAK1 (Homo sapiens, UniProt P23458); test: biochemical
Description: Inhibition of recombinant human JAK1 (854 to 1154 residues) expressed in insect cells using Y1-B as substrate incubated for 30 mins by microfluidic mobility shift assay

[2] = Metabolic stability in human liver microsomes assessed as intrinsic clearance at 1 uM measured upto 60 mins by LC-MS/MS analysis; type: ADME, Microsome; conditions: read-out: CLH
[3] = molecular target: Protein kinase C alpha type (Homo sapiens) (UniProt P17252); test: Inhibition of recombinant human His-tagged full length PKCalpha expressed in Escherichia coli expression system using Ser/Thr 07 as substrate at 0.1 uM incubated for 60 mins by Z'-lyte assay relative to control
[4] = molecular target: Angiopoietin-1 receptor (Homo sapiens) (UniProt Q02763); test: Inhibition of recombinant human GST-tagged TIE2 (817 to 1101 residues) expressed in baculovirus expression system using […] as substrate at 0.1 uM incubated for 60 mins by Z'-Lyte assay relative to control
[5] = molecular target: Epidermal growth factor receptor (Homo sapiens) (UniProt P00533); test: Inhibition of recombinant human GST-tagged EGFR (668 to 1210 residues) expressed in baculovirus expression system using Tyr 4 as substrate at 0.1 uM incubated for 60 mins by Z'-Lyte assay relative to control
Sequence of Epidermal growth factor receptor (Homo sapiens) (P00533 whole entry, the tested form may be a part): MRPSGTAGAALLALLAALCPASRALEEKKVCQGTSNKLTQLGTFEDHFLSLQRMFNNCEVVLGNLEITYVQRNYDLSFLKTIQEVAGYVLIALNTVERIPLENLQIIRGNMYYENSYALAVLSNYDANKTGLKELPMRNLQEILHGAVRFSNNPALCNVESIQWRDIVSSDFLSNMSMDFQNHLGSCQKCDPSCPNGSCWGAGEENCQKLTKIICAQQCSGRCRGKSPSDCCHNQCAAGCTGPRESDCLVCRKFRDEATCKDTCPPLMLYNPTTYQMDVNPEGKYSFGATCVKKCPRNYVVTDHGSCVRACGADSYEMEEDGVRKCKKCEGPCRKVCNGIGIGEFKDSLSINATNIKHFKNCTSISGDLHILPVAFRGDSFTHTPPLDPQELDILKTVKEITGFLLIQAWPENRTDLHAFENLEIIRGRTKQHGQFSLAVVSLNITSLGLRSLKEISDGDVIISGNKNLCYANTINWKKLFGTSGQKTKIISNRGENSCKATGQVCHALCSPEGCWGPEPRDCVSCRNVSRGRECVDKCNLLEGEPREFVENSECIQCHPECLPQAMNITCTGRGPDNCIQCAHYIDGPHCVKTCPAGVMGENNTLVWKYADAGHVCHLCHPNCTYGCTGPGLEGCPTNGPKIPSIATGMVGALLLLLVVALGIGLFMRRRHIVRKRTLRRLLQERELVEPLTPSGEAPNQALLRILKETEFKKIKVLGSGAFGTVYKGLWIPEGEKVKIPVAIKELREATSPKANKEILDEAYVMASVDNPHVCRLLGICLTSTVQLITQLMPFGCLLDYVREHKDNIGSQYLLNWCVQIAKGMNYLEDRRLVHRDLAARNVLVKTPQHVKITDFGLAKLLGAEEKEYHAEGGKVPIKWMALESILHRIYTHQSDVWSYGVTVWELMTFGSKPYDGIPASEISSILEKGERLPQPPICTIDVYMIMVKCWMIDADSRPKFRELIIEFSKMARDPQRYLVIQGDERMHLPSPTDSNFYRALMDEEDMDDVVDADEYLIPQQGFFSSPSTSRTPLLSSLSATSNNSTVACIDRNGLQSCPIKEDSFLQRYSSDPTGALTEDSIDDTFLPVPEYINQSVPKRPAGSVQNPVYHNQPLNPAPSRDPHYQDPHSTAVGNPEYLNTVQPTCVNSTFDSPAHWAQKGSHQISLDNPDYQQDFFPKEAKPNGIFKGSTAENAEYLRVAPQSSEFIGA

in vitro = conditions: dog, MDCK
Description: Apparent permeability across apical to basolateral side in MDCK cells at 10 uM incubated upto 180 mins by LC/MS-MS analysis

[6] = molecular target: Myosin light chain kinase, smooth muscle (Homo sapiens) (UniProt Q15746); test: Inhibition of tracer 236 binding to recombinant human GST-tagged MYLK (1428 to 1771 residues) expressed in baculovirus expression system at 0.1 uM incubated for 60 mins by Lanthascreen assay relative to control
[7] = molecular target: High affinity nerve growth factor receptor (Homo sapiens) (UniProt P04629); test: Inhibition of recombinant human His-tagged TRKA (441 to 796 residues) expressed in baculovirus expression system using Tyr 01 as substrate at 0.1 uM incubated for 60 mins by Z'-Lyte assay relative to control
Sequence of High affinity nerve growth factor receptor (Homo sapiens) (P04629 33-796 limits assumed): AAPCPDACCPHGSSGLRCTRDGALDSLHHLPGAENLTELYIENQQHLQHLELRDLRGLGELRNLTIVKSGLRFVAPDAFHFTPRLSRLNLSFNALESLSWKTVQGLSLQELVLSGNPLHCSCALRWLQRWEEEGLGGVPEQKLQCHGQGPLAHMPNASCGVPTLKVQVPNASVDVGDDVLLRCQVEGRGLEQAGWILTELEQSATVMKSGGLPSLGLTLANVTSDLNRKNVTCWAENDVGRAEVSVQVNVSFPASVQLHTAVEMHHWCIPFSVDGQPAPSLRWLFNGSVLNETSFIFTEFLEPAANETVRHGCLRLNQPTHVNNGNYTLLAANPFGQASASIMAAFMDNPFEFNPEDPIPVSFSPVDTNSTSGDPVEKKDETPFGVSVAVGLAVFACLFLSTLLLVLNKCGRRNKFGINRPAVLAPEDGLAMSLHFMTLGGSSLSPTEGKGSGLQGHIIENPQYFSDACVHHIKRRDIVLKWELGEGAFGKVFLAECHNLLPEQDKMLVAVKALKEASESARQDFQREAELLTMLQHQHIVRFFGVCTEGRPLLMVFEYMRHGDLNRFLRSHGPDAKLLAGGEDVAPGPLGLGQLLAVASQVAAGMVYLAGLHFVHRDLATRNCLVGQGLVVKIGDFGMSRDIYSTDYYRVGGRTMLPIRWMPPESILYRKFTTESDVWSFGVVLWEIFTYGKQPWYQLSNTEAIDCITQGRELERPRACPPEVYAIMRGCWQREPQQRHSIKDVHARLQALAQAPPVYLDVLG

[8] = molecular target: T1, Tyrosine-protein kinase JAK2 (Homo sapiens, UniProt O60674)
T1 sequence (O60674 whole entry): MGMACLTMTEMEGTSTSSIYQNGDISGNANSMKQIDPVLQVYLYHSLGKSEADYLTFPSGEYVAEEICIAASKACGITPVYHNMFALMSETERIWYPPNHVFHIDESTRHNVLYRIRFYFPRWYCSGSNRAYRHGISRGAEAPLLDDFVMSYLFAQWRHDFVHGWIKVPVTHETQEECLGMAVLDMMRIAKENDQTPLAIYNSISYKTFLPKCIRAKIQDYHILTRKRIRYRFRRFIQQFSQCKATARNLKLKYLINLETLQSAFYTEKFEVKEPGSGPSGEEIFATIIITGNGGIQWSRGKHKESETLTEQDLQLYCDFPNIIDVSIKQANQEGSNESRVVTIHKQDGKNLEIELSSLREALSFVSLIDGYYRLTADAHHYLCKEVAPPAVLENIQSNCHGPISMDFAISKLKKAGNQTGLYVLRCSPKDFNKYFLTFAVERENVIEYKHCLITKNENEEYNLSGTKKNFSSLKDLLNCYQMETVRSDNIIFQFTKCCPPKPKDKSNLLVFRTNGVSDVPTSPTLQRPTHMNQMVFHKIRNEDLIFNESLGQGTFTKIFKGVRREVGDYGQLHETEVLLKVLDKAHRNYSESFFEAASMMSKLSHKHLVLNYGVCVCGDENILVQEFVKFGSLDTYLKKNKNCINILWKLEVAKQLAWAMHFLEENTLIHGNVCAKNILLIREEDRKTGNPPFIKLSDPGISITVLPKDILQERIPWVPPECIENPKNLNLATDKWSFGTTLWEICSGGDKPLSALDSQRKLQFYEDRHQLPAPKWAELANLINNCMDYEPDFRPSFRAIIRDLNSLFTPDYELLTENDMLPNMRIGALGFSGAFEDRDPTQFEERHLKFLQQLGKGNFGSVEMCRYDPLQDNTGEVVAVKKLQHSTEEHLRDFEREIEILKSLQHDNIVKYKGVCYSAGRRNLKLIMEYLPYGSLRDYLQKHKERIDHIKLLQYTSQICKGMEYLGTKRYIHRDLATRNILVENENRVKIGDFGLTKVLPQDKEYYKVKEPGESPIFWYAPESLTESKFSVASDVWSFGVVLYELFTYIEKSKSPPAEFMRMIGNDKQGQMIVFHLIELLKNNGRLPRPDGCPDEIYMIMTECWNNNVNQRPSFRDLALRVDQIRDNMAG
Description: Inhibition of recombinant human JAK2 (812 to 1132 residues) expressed in insect cells using Y1-B as substrate incubated for 30 mins by microfluidic mobility shift assay

[9] = molecular target: Mitogen-activated protein kinase 11 (Homo sapiens) (UniProt Q15759); test: Inhibition of recombinant human His-tagged full length p38 beta expressed in baculovirus expression system using Ser/Thr 15 as substrate at 0.1 uM incubated for 60 mins by Z'-Lyte assay relative to control
Sequence of Mitogen-activated protein kinase 11 (Homo sapiens) (Q15759 whole entry): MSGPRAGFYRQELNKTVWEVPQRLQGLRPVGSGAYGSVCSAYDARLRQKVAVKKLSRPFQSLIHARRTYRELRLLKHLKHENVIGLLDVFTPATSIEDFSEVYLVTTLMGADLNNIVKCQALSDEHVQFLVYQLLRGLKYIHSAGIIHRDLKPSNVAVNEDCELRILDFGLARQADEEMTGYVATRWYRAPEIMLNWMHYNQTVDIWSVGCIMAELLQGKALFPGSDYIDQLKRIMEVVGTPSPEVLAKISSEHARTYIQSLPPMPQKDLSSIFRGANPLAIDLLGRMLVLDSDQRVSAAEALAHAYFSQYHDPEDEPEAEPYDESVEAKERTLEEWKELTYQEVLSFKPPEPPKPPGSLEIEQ

[10] = molecular target: MAP kinase-activated protein kinase 2 (Homo sapiens) (UniProt P49137); test: Inhibition of recombinant human His-tagged full length MAPKAPK2 expressed in Escherichia coli expression system using Ser/Thr 04 as substrate at 0.1 uM incubated for 60 mins by Z'-lyte assay relative to control
Sequence of MAP kinase-activated protein kinase 2 (Homo sapiens) (P49137 whole entry, looked up, the tested form may be a part): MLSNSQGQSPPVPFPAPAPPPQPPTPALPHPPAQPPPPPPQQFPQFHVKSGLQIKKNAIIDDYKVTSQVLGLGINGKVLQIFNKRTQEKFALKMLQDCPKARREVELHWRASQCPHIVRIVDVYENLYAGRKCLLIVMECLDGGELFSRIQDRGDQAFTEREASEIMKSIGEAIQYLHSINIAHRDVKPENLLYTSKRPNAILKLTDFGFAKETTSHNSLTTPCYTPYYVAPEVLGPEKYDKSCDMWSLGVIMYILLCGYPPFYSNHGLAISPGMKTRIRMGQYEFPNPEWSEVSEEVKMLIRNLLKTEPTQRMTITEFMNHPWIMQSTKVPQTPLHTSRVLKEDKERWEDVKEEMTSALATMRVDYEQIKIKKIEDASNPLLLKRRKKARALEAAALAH

[11] = molecular target: Insulin receptor (Homo sapiens) (UniProt P06213); test: Inhibition of recombinant human GST-tagged InsR (1011 to 1382 residues) expressed in baculovirus expression system using Tyr 01 as substrate at 0.1 uM incubated for 60 mins by Z'-lyte assay relative to control
[12] = molecular target: Leucine-rich repeat serine/threonine-protein kinase 2 (Homo sapiens, UniProt Q5S007); test: Inhibition of recombinant human GST-tagged LRRK2 (970 to 2527 residues) expressed in baculovirus expression system using LRRKtide as substrate incubated for 60 mins by Adapta assay
[13] = molecular target: T1, Tyrosine-protein kinase JAK2; test: Inhibition of recombinant human GST-tagged JAK2 (809 to 1153 residues) expressed in baculovirus expression system using Tyr 06 as substrate at 0.1 uM incubated for 60 mins by Z'-lyte assay relative to control
[14] = molecular target: Serine/threonine-protein kinase Sgk1 (Homo sapiens) (UniProt O00141); test: Inhibition of recombinant human GST-tagged […] SGK1 (60 to 431 residues) expressed in baculovirus expression system using Ser/Thr 06 as substrate at 0.1 uM incubated for 60 mins by Z'-Lyte assay relative to control
Sequence of Serine/threonine-protein kinase Sgk1 (Homo sapiens) (O00141 whole entry, the tested form may be a part): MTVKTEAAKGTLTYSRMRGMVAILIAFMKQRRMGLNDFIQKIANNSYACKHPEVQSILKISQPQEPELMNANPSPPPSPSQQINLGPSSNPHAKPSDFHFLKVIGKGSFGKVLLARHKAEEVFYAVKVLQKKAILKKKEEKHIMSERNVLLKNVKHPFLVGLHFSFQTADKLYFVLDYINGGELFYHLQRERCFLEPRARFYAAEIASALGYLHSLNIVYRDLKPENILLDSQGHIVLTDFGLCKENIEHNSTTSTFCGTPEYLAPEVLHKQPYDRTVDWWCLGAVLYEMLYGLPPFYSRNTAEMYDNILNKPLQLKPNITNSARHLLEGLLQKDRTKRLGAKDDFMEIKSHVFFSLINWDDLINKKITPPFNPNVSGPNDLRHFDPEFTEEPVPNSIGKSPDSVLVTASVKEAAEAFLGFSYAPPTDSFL

[15] = molecular target: Tyrosine-protein kinase receptor UFO (Homo sapiens) (UniProt P30530); test: Inhibition of recombinant human GST-tagged full length AXL expressed in insect expression system using Tyr 06 as substrate at 0.1 uM incubated for 60 mins by Z'-Lyte assay relative to control
[16] = molecular target: Inhibitor of nuclear factor kappa-B kinase subunit alpha (Homo sapiens) (UniProt O15111); test: Inhibition of recombinant human His-tagged full length IKKalpha expressed in baculovirus expression system at 0.1 uM incubated for 60 mins by Adapta assay relative to control

Compound | Ki [1] [pM] | CLint scaled at 1 µM [2] [mL/min/kg] | inhibition [3] [%] | inhibition [4] [%] | inhibition [5] [%] | Papp A→B at 3 h, 10 µM (in vitro) [×10⁻⁶ cm/s] | inhibition [6] [%] | inhibition [7] [%] | Ki [8] [pM] | inhibition [9] [%] | inhibition [10] [%] | inhibition [11] [%] | IC50 [12] [pM] | inhibition [13] [%] | inhibition [14] [%] | inhibition [15] [%] | inhibition [16] [%]
O=C(Nc1c[nH]nc1-c1cc(Cl)ccc1OC(F)F)c1cnn2cccnc12 | 210 | 14 | 12 | 12 | 0 | 14 | 2 | 59 | 71 | 9 | 0 | 6 | 18000 |  |  |  | 
O=C(Nc1c[nH]nc1-c1cc2ccccc2cc1OC(F)F)c1cnn2cccnc12 |  | 17 | 1 |  | 6 | 13 | 0 | 23 |  | 5 | 6 | -8 | 180000 | 97 | -4 | 0 | 6
Cn1cc(NC(=O)c2cnn3cccnc23)c(-c2cc(Cl)ccc2OC(F)F)n1 | 210 | 15 | 11 | 3 | 2 | 14 | 11 | 44 | 88 | 11 | 10 | 4 |  | 98 | 7 | 5 | -3
